Data from ChEMBL document CHEMBL1201862, “PubChem BioAssay data set” (2004).
The source made the active and inactive calls.

What was measured:
Beta-galactosidase = Beta-galactosidase (Escherichia coli, UniProt Q8VNN2); assay: Dose response counterscreen for EBI2 assay utilizing the enzyme, b-galactosidase.; type: functional
cells [1] = type: functional, cell-based
[2] = target: T1, Trace amine-associated receptor 1 (Homo sapiens, UniProt Q96RJ0); assay: Fluorescence-based cell-based high throughput dose response assay to identify agonists of the human trace amine associated receptor 1 (TAAR1).; type: functional
T1 sequence (Q96RJ0 whole entry): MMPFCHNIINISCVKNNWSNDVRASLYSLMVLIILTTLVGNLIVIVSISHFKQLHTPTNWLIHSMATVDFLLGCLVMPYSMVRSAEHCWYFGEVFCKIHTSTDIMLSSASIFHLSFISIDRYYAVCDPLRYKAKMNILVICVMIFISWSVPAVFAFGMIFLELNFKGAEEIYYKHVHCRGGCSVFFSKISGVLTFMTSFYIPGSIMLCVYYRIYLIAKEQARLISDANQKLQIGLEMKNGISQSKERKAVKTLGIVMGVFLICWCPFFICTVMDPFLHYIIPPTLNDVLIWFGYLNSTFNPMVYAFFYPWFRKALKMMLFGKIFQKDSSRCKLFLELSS

[3] = target: T1, Trace amine-associated receptor 1; assay: Counterscreen for agonists of the human trace amine associated receptor 1 (hTAAR1): Fluorescence-based cell-based high throughput dose response assay to identify hTAAR1 agonist that also desensitize TAAR1 receptor response.; type: functional
cells [4] = type: functional, cell-based; remark: listed apart in the source
[5] = NIH-3T3 fibroblast cytotoxicity, dose response, cytotoxicity control, cell-based, fluorescence, Alamar Blue, secondary assay (AID 2327); type: functional;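 note: NIH-3T3 mouse fibroblasts cultured with fluconazole at 8 µg/mL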
[6] = fluconazole-exposed Candida albicans growth modulators – fluorescence, retest, confirmation (AID 2467); type: functional, cell-based
[7] = microbe, parasite or virus in culture; type: functional; details: Mycobacterium tuberculosis
[8] = THP-1 cell cytotoxicity, dose response, cytotoxicity control for non-replicating M. tuberculosis project (AID 489025); type: functional
[9] = Vero E6 cell cytotoxicity, dose response, cytotoxicity control for non-replicating M. tuberculosis project, secondary assay (AID 492998); type: functional, VeroE6; details: Vero C1008
cells [10] = type: functional
Albumin = Albumin (Bos taurus, UniProt P02769); assay: Counterscreen for inhibitors of T-cell receptor (TCR)-CD3 interaction: Fluorescence-based biochemical high throughput dose response assay to identify inhibitors of T-cell receptor (TCR)-CD3 interaction using a TAMRA-labeled BSA probe.; type: functional
Chain of Albumin (P02769 whole entry): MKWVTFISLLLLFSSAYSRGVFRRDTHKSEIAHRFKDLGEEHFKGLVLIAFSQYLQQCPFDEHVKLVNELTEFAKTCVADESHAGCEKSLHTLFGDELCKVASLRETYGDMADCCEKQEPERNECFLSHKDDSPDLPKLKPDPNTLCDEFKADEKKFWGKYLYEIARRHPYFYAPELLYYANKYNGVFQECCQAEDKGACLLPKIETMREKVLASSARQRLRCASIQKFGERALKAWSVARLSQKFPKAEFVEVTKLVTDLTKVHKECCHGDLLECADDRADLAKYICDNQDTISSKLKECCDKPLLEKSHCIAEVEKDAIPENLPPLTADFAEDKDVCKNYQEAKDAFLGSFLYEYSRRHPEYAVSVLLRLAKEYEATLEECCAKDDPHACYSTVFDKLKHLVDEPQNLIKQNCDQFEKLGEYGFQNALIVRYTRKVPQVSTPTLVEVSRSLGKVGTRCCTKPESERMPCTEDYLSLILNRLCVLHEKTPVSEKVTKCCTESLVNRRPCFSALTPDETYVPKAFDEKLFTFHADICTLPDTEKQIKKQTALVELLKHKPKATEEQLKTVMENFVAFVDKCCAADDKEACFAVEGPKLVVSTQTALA

[11] = target: Luciferin 4-monooxygenase (Photinus pyralis, UniProt P08659); assay: Counter Screen for Luciferase-based Assay Positives. [Related pubchem assays: 620, 618, 411 ]
Chain of Luciferin 4-monooxygenase (P08659 whole entry): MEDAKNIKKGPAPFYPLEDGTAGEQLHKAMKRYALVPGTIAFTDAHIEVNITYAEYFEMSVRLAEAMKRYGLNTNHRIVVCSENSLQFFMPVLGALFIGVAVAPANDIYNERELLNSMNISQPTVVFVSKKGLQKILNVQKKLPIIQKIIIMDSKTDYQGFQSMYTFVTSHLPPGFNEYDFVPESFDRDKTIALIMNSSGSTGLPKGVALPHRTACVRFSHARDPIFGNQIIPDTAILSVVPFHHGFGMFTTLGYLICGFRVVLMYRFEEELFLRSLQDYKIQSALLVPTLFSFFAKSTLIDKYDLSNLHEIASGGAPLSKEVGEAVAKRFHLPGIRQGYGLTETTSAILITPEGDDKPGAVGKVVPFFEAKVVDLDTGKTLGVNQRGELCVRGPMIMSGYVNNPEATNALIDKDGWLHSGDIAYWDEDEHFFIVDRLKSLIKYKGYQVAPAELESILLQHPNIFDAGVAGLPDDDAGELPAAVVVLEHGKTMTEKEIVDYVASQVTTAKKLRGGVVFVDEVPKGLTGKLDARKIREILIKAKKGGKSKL

HT-1080 = assay: HT1080 cell viability loss – fluorescence readout (AID 620); type: functional, cell-based; details: Homo sapiens
HEK293 = assay: EBV LMP1 TES2 canonical NF-kB signalling blockers – cell-based, HEK293, luciferase, cherry-pick, dose response (AID 588343); type: functional, Homo sapiens; details: Homo sapiens, HEK293
[12] = A549 cell cytotoxicity, dose response, cytotoxicity control, plate reader, cherry-pick, antagonist series (AID 743412); type: functional, cell-based
[13] = toxicity toward HepG2 liver cells – cell-based, plate reader, cherry-pick, antagonist series, cytotoxicity control, dose response (AID 743416); type: functional
[14] = blockers of bursicon-stimulated LGR2 cAMP reporter – cell-based, HEK293, CRE-luciferase reporter, cherry pick, set 2, dose response (AID 743343); type: functional;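 note: transfected cells were stimulated with diluted bursicon conditioned medium after compound addition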
[15] = blockade of melanocortin 4 receptor signaling – cell-based, plate reader, cherry pick, counter-screen for LGR2 antagonist project, dose response (AID 743444); type: functional;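 note: transfected HEK 293 cells stimulated with alpha-MSH peptide; potency of inhibitors of the alpha-MSH evoked signal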
[16] = viability loss in HEK293 cells – cell-based, plate reader, cherry-picked samples, cytotoxicity control, dose response (AID 743446); type: functional
[17] = target: T2, Heat shock factor protein 1 (Mus musculus, UniProt P38532); assay: enhancement of HSF1-driven luciferase signal – cell-based, NIH3T3, luminescence, dose retest, confirmation (AID 435004); type: functional;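 note: stress induced by proteasome inhibitor MG132 added 30 min after compound; luciferase reporter driven by HSF1 response element in NIH3T3 cells; actives raise luminescence as potentiators of the MG132 stress response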
T2 sequence (P38532 whole entry): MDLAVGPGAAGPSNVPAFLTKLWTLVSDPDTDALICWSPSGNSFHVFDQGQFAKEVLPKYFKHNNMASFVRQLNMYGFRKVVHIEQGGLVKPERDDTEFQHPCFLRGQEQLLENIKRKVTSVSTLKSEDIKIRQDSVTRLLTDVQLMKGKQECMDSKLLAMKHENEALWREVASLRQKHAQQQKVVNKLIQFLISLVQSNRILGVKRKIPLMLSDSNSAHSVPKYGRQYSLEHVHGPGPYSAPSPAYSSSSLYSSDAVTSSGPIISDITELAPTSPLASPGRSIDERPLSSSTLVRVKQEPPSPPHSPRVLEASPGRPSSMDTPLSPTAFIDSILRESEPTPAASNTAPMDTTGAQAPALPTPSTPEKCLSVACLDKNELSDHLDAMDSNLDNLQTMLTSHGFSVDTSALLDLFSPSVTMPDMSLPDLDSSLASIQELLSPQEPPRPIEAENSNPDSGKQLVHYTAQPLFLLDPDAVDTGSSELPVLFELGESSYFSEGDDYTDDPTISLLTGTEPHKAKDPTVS

[18] = target: T3, Methionyl-tRNA synthetase, putative (Trypanosoma brucei brucei, UniProt Q38C91); type: functional, Trypanosoma brucei brucei strain 927/4 GUTat10.1
T3 sequence (Q38C91 whole entry): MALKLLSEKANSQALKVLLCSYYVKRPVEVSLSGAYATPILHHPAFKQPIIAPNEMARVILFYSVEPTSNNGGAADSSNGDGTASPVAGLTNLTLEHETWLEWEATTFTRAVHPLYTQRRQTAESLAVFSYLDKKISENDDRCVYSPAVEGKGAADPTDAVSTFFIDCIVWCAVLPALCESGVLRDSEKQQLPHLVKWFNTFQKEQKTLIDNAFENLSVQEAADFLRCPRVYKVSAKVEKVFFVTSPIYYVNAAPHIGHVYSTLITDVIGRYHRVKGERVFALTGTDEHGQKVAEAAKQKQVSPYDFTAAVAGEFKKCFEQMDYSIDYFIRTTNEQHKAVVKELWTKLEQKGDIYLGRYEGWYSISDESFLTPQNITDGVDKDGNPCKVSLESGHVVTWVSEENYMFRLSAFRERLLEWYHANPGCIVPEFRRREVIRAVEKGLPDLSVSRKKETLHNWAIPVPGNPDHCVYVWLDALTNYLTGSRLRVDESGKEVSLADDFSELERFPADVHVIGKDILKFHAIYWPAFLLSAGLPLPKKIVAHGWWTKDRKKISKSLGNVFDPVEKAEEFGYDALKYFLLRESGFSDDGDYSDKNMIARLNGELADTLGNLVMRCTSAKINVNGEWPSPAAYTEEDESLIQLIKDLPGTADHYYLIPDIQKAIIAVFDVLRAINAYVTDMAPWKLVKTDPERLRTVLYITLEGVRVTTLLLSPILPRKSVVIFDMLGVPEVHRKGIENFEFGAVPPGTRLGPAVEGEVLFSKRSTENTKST

[19] = Counterscreen for inhibitors of Trypanosoma brucei methionyl tRNA synthetase (MetRS): Luminescence-based cell-based high throughput dose response assay to identify compounds that are cytotoxic to Jurkat human T lymphocyte cells.; type: functional
[20] = target: T3, Methionyl-tRNA synthetase, putative; type: functional, Trypanosoma brucei brucei strain 927/4 GUTat10.1; remark: listed apart in the source
[21] = blockers of HIV-1 envelope-mediated cell-cell fusion – cherry-pick, dose response (AID 652057); type: functional, cell-based
[22] = blockers of HIV-1 ZM109 envelope-driven cell-cell fusion – HeLa effector, CEM target cells, luciferase, cherry-pick, dose response (AID 652058); type: functional, cell-based;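 note: luciferase signal from HIV-1 Env mediated cell-cell fusion of effector and target cells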
[23] = off-target signal loss in HeLa-CEM21 co-culture – HeLa F-luc CTL cells, cherry-picked, counter-screen for HIV-1 Env fusion inhibitor project, dose response (AID 652040); type: functional, cell-based;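 note: potency for signal decrease marking cytotoxic or nonspecific inhibition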
[24] = HIV-1 AD8 envelope cell-cell fusion blockers – cherry-pick, dose response (AID 652062); type: functional, cell-based;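 note: luciferase signal from cell-cell fusion driven by HIV-1 clade B AD8 Env; potency is for inhibitors of fusion seen as a drop in luminescence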
Vero = assay: cells; type: functional; details: Chlorocebus sabaeus
Caspase-6 = target: T4, Caspase-6 (Homo sapiens, UniProt P55212); assay: inhibition of CASP6 peptide cleavage – biochemical, VEID-R110 fluorescence, cherry-pick, dose response (AID 720632)
T4 sequence (P55212 whole entry): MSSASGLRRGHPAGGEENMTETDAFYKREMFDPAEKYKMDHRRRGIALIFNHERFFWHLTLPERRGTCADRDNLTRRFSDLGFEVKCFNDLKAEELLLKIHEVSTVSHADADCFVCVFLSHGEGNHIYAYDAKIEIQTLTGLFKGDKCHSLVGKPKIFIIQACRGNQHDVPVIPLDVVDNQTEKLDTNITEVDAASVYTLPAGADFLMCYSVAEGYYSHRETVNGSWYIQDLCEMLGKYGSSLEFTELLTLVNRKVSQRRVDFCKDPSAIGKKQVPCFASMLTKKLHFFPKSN

[25] = viability of uninfected HEp-2 cells – cell-based, HTS, cytotoxicity control for RSV inhibitor project, dose response (AID 2410); type: functional; details: human respiratory syncytial virus

Chain of Beta-galactosidase (Q8VNN2 whole entry): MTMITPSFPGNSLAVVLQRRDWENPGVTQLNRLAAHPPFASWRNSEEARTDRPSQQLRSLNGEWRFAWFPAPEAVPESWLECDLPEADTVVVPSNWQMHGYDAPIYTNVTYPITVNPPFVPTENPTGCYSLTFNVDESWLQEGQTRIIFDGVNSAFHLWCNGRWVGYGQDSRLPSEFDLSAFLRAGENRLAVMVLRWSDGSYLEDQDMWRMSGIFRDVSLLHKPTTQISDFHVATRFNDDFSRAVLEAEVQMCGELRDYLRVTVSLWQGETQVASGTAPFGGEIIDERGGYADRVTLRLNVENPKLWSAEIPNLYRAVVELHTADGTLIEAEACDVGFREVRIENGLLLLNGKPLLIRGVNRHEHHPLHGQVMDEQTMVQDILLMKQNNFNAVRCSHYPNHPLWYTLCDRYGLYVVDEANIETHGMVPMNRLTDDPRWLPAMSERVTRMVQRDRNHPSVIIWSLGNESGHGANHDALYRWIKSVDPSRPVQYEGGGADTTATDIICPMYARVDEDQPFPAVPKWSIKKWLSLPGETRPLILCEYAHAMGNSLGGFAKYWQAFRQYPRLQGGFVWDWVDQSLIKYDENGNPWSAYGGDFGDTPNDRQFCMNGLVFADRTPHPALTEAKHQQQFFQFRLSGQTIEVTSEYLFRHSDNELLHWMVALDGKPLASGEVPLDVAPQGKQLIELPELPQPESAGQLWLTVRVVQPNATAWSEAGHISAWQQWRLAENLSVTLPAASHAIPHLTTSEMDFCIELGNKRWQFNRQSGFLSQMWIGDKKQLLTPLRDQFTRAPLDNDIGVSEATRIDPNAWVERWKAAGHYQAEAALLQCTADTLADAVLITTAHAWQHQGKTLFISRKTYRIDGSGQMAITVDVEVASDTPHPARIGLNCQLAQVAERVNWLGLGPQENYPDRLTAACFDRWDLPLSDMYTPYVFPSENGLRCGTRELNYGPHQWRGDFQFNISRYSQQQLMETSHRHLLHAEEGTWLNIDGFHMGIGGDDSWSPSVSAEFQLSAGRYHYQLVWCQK

COc1ccc(-n2cc(-c3ccc(Cl)cc3)nc2S)cc1
IC50 (Beta-galactosidase): > 80 µM (inactive)

COc1cc(/C=C(\C#N)C(N)=O)ccc1OS(=O)(=O)c1ccc(C)cc1
IC50 (Beta-galactosidase): > 80 µM (inactive)

Cc1ccc(C)c(N2CN(CCC3=CCCCC3)CN=C2S)c1
IC50 (cells [1]): > 29.9 µM (inactive)
EC50 [2]: 4.03 µM (active)
IC50 [3]: 7.73 µM (active)
EC50 (cells [4]): > 29.9 µM (inactive)

Cc1cc2oc3ccc(NCCCn4ccnc4)cc3c(=O)c2cc1C
EC50 [5]: 24.7 µM (active)
EC50 [6]: 1.82 µM (active)
CC50 [7]: 12.4 µM (active)
CC50 [8]: 26.9 µM (active)
CC50 [9]: 14.6 µM (active)
IC50 (cells [10]): 27.9 µM (active)
IC50 (Albumin): > 94.1 µM (inactive)

Cc1cc2c(cc1S(=O)(=O)CCC(=O)NCCc1ccccc1)OCC(=O)N2
IC50 (cells [1]): > 29.9 µM (inactive)
EC50 [2]: 3.59 µM (active)
IC50 [3]: 5.78 µM (active)
EC50 (cells [4]): > 29.9 µM (inactive)

c1ccc(-c2nc(-c3ccccn3)no2)cc1
EC50 [11]: 350 nM (active)
EC50 (HT-1080): > 50 µM (not active)
AC50 (HEK293): 1.68 µM (active)
AC50 [12]: 6.2 µM (active)
AC50 [13]: 9.19 µM (active)
AC50 [14]: 2.65 µM (active)
AC50 [15]: 2.47 µM (active)
AC50 [16]: 7.31 µM (active)

Cn1c(CCCOc2ccc(Cl)cc2Cl)nnc1SCC(=O)Nc1cccc(F)c1
EC50 [17]: 181 µM (active)
IC50 [18]: 119 µM (inactive)
IC50 [19]: 28.3 µM (inactive)
IC50 [20]: 52.2 µM (inactive)

O=C(CCCCn1c(=O)[nH]c2ccccc2c1=O)N1CCN(c2cccc(C(F)(F)F)c2)CC1
AC50 [21]: 11.1 µM (active)
AC50 [22]: 3.8 µM (active)
AC50 [23]: 16 µM (active)
AC50 [24]: 8.93 µM (active)

O=[N+]([O-])c1ccc(/C=[N+](\[O-])[C@@H]2CCCC[C@@H]2/[N+]([O-])=C/c2ccc([N+](=O)[O-])o2)o1
EC50 [17]: 8.46 µM (active)
CC50 (Vero): 14.8 µM (active)
AC50 (Caspase-6): 41.1 µM (active)

CCC(=O)Nc1cccc(-c2ccc(N3CCC(C)CC3)nn2)c1
CC50 [25]: 26.9 µM (active)
AC50 [12]: > 52 µM (inactive)
AC50 [13]: > 52 µM (inactive)
AC50 [14]: 6.78 µM (active)
AC50 [15]: 10.3 µM (active)
AC50 [16]: 35.7 µM (active)
